Measured values reported in patent US20090306012A1, “THERAPEUTIC PROTOCOLS” (priority 2001, published 2009).
Where two headings read alike, the source gives them in different places.

Legend:
[1] = type: in vivo; conditions: 6-week regimen
Procedure: The overall survival time was calculated as the time (days or weeks) that the animal lived, after the commencement of treatment.

[2] = In vivo cytotoxicity (III), CMF±HA: effect of treatment on organ mass; set-up: species or system Athymic CBA/WEHI nude female mice; conditions: mouse
Source text: (§1) Immediately after killing the mouse, the tumor, liver, heart, spleen, bladder, left and right kidneys, uterus, lungs, stomach, intestines, brain and lymph nodes were excised and weighed, and placed in 10% v/v formalin. The tissue was fixed for 16-24 hrs before histological processing. Fixed tissue was dehydrated stepwise to 100% v/v ethanol and embedded in paraffin blocks from which 2-4 μm sections were placed on glass microscope slides. Staining the tissue sections with a hematoxylin nuclear stain and eosin cytoplasmic stain highlighted any pathological features that could indicate treatment toxicity.
The mass of each organ was calculated as a percentage of the overall net bodyweight, and compared to the organ masses of the saline only group.

[3] = In vivo cytotoxicity (III), CMF±HA: organ pathology (lungs, liver); set-up: species or system Athymic CBA/WEHI nude female mice
Source text: as §1

[4] = system: neutrophils; assay: Phase I clinical trial of doxorubicin + HA (HyDox) in advanced cancer: toxicity, neutrophil counts; type: in vivo, patients; conditions: HA 500 mg/m^2 with Dox 30-60 mg/m^2, three week cycle
Source text: The eligibility criteria, for inclusion in this study, were as follows: Patients must have advanced or metastatic cancer, histologically or cytologically confirmed. Patients were not to have had previous chemotherapy or were to have had no more than one prior chemotherapy regime and were not to have had prior anthracyclines. Patients were to be aged between 18 and 75 years with ambulatory performance status and adequate bone marrow, liver and renal function.
The treatment plan provided that, in the first chemotherapy cycle, patients be randomized to receive Dox alone or Dox plus HA. The converse applied in the second cycle. In the subsequent four cycles, patients received Dox plus HA. This allowed each patient to act as his/her own control in the toxicity analysis in the first two cycles, reducing the possibility of inter-patient variability affecting result interpretation.
Injectable sodium chloride was obtained from Baxter Healthcare, Sydney, Australia, as supplied as a 500 ml infusion bag.
Therefore, the initial dose level was 30 mg/m^2, the next 45 mg/m^2 and the next 60 mg/m^2.

[5] = system: blood cell sub-populations; assay: In vivo cytotoxicity (III), CMF±HA: bone marrow suppression (blood cell counts); set-up: species or system Athymic CBA/WEHI nude female mice
Procedure: At the experimental end-point, when animals had to be euthanased due to degree of disease progression or when the 6-week treatment regimen was completed, the animals were anesthetized by a 0.1 ml intra-peritoneal injection of Nembutal (60 mg/ml), blood was collected, and the animals killed using cervical dislocation.
Erythrocyte, platelet and white blood cell numbers were estimated by making a 1/50- 1/2000 dilution of blood in mouse tenacity saline and counting on a hemocytometer. A blood smear was made and stained with Giemsa, thereby enabling a relative percentage quantification of neutrophils, lymphocytes, and […]. The total estimation of blood cell sub-populations was compared with published data for mouse blood.

[6] = system: neutrophils; conditions: human, in vivo
Procedure: The 5-FU±HA was given by intravenous administration over one hour on a four week cycle. The initial dose of 5-FU in this study was 450 mg/m^2 daily for three days and the dose of HA 500 mg/m^2 with each administration of 5-FU. Dose escalation occurred in two steps to reach the standard dose of 450 mg/m^2 for five consecutive days with each cycle. Therefore, the initial dose level was 450 mg/r^2 daily for three days, the next 450 mg/m^2 for four days and the final 450 mg/m^2 daily for five days.

[7] = HA days 1 and 3 (CMF, where given, days 2 and 4)

Substance: hyaluronan [HA]
- Survival time mean ± SEM [1, 7]: 42 ± 0 days
- Survival time mean ± SEM ([1]; administered days 1 and 2): 42 ± 0 days
- Spleen mass compared to the untreated control [2]: significant enlargement of the spleen
- Liver: % with areas of focal liver necrosis/inflammation ([3]; liver pathology): 25% with
- Lungs: % with oedema and macrophage infiltrate ([3]; lung pathology): 12.5% with
- Effect on known toxicities of Dox in patients [4]: does not increase any of the known toxicities of Dox
- Erthrocytes (Mean ± SD) [5, 7]: 8.78 ± 0.25 × 10^6/ul
- Lymphocytes/Monocytes (Mean ± SD) [5, 7]: 47 ± 2%
- Neutrophils/eosinophils/basophils (Mean ± SD) [5, 7]: 53 ± 2%
- Platelets (Mean ± SD) [5, 7]: 1356 ± 41 × 10^3/ul
- White Cells (Mean ± SD) [5, 7]: 6.15 ± 0.05 × 10^3/ul
- Erthrocytes (Mean ± SD) ([5]; administered days 1 and 2): 8.99 ± 0.13 × 10^6/ul
- Lymphocytes/Monocytes (Mean ± SD) ([5]; administered days 1 and 2): 47 ± 1%
- Neutrophils/eosinophils/basophils (Mean ± SD) ([5]; administered days 1 and 2): 53 ± 1%
- Platelets (Mean ± SD) ([5]; administered days 1 and 2): 1374 ± 7 × 10^3/ul
- White Cells (Mean ± SD) ([5]; administered days 1 and 2): 6.15 ± 0.03 × 10^3/ul
- Effect on known toxicities of 5-FU in patients [6]: does not increase any of the known toxicities of 5-FU
